Results reported in publication PMC3898329, “Human junctophilin-2 undergoes a structural rearrangement upon binding PtdIns(3,4,5)P3 and the S101R mutation identified in hypertrophic cardiomyopathy obviates this response” (Biochemical Journal, 2013).
Numbering of substitutions follows the chain as printed.

Key:
[1] = target: T1, full-length human JP2 (junctophilin-2) (Homo sapiens, UniProt Q9BR39); test: protein-lipid overlay; settings: weak binding
T1 construct: gene JPH2; full-length, N-terminal MBP tag removed with PreScission protease; E. coli BL21; ~75 kDa on SDS/PAGE; stated as monomeric
T1 sequence (Q9BR39 1-696): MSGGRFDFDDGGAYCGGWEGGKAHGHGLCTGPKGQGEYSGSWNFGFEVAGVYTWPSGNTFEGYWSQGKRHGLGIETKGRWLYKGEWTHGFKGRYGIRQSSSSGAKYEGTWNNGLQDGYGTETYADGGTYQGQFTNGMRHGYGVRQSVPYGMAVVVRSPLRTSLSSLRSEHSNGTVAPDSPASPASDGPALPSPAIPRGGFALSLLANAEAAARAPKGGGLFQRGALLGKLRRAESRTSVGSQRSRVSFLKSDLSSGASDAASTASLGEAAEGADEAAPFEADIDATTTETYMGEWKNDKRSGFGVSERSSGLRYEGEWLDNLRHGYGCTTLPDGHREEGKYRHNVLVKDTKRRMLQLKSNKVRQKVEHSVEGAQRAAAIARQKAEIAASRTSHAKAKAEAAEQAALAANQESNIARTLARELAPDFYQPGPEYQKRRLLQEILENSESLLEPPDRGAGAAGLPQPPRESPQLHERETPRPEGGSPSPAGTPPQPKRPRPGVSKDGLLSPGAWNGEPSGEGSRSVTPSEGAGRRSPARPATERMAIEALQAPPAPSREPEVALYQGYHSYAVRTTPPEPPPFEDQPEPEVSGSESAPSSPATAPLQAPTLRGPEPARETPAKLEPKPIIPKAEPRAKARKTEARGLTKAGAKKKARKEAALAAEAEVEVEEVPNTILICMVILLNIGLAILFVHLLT

[2] = target: T1, full-length human JP2 (junctophilin-2); test: QCM-D, supported lipid bilayer, one-site isotherm; type: binding; settings: read-out: DOPC/DOPE/POPC/DOPS (55:15:10:20, by vol.) JP2
Description: (§1) QCM-D, supported lipid bilayer, one-site isotherm on full-length human JP2 (junctophilin-2)

[3] = target: T2, full-length human JP2 (junctophilin-2) (Homo sapiens, UniProt Q9BR39, S101R); test: QCM-D, supported lipid bilayer, one-site isotherm; type: binding; settings: read-out: DOPC/DOPE/POPC/DOPS (55:15:10:20, by vol.) / S101R
T2 construct: gene JPH2; full-length, N-terminal MBP tag removed with PreScission protease; E. coli BL21; ~75 kDa on SDS/PAGE; stated as monomeric
T2 sequence (Q9BR39 1-696 S101R): T1 sequence (Q9BR39 1-696) with S101R
Description: as §1

[4] = target: T3, JP2^1–452 (N-terminal domain) (Homo sapiens, UniProt Q9BR39); test: QCM-D, supported lipid bilayer, one-site isotherm; type: binding; settings: read-out: DOPC/DOPE/POPC/DOPS (55:15:10:20, by vol.) / JP2^1-452
T3 construct: gene JPH2; N-terminal segment, residues 1-452, N-terminal MBP tag removed with PreScission protease; E. coli BL21; ~50 kDa on SDS/PAGE
T3 sequence (Q9BR39 1-452): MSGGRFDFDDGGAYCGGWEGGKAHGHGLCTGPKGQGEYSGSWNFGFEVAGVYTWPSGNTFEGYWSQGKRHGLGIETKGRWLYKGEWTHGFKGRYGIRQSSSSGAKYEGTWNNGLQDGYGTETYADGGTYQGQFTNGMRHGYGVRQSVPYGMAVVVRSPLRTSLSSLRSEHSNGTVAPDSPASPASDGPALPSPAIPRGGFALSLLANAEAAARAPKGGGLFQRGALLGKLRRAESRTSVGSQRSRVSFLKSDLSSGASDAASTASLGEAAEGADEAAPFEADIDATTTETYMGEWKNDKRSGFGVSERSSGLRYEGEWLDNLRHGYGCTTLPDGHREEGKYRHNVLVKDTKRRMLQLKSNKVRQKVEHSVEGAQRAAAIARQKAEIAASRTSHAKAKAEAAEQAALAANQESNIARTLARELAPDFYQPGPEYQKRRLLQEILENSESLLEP
Description: QCM-D, supported lipid bilayer, one-site isotherm on JP2^1–452 (N-terminal domain)

Q: For CCCCCCCC/C=C\CCCCCCCC(=O)OC[C@H](COP(=O)(O)OCC(O)CO)OC(=O)CCCCCCC/C=C\CCCCCCCC (stereo partly shown) [DOPG, 1,2-dioleoyl-sn-glycero-3-phosphoglycerol], which protein-lipid overlay [1] is on record?
A: Its protein-lipid overlay is “there is only weak binding of JP2 to DOPG”.

Q: CCCCCCCC/C=C\CCCCCCCC(=O)OC[C@H](COP(=O)(O)OC[C@H](N)C(=O)O)OC(=O)CCCCCCC/C=C\CCCCCCCC [DOPS, 1,2-dioleoyl-sn-glycero-3-phospho-L-serine] was tested. Which Kd [2] did it give?
A: Its Kd is 483 ± 54 nM.

Q: What about the Kd [3] of the same molecule?
A: The Kd was 371 ± 31 nM.

Q: What about the Kd [4] of the same molecule?
A: Its Kd is 992 ± 80 nM.
